SMILES strings stand for the structures. Activity calls are given as the source filed them. The calls are words filed in the database; no cut-off is given here.

Data set [1] relates to MADS. In words: Induction of osteogenesis in human MADS cells assessed as ALP activity at 0.1 to 100 nM. It counts as functional, cell-based.
Data set [2] in a line: Inhibition of osteogenesis in human MADS cells assessed as ALP activity at 300 nM. It counts as cell-based. As to conditions: 0.3 µM.
Data set [3] has as its system MADS. In words: Effect on adipogenic differentiation of human MADS cells into adipocytes at 100 nM after 14 days by Oil red O staining. It counts as functional, cell-based.
The nature of data set [4]: Toxicity in human MADS cells assessed as inhibition of osteoblast formation at 100 nM after 14 days by Von Kossa staining. Format: cell-based. As to conditions: 336 h, 0.1 µM.
A short description of data set [5]: Cytotoxicity against human MADS cells at 0.1 to 100 nM. It counts as cell-based. The following applies: 0.1 µM.
Data set [6] can be described thus: Cytotoxicity against human MADS cells at 300 nM. It counts as cell-based. As to conditions: 0.3 µM.
In data set [7] the test system is MADS. The experiment in a line: Effect on adipogenic differentiation of human MADS cells into adipocytes at 300 nM after 14 days by Oil red O staining. It counts as functional, cell-based.
Data set [8] is described as follows: Cytotoxicity against human MADS cells at 100 nM. As to conditions: 0.1 µM. It counts as cell-based.
Data set [9] is described as follows: Toxicity in human MADS cells assessed as inhibition of osteoblast formation at 300 nM after 14 days by Von Kossa staining. Format: cell-based. The following applies: 336 h, 0.3 µM.
In data set [10] the test system is MADS. The experiment in a line: Effect on adipogenesis in human MADS cells assessed as GPDH activity at 100 nM. It counts as functional, cell-based.
Data set [11] concerns MADS. In words: Effect on adipogenesis in human MADS cells assessed as GPDH activity at 300 nM. Format: functional, cell-based.
Data set [12] can be described thus: Inhibition of osteogenesis in human MADS cells assessed as ALP activity at 100 nM. Format: cell-based. As to conditions: 0.1 µM.

For `CC(C)(C(=O)O)N(CP(=O)(O)O)CP(=O)(O)O`, the outcome with MADS [1] was Active. In addition, the Activity result in data set [2] is listed as “Active”; in [4], “Toxic”; in data set [5] it was “Non-toxic”; in data set [6], “Non-toxic”; in [8] it was “Non-toxic”; in data set [9] it was “Toxic”. Besides, the result in data set [12] was Active. Besides, the result in the data set with MADS [3], in the data set with MADS [7], in the data set with MADS [10] and with MADS [11] was inactive.

Consider `O=C(O)C1(N(CP(=O)(O)O)CP(=O)(O)O)CCCCC1`, for which the outcome with MADS [1] was Active. In addition, the Activity result in [2] was “Active”; in data set [4], “Toxic”; in [5], “Non-toxic”; in data set [6], “Non-toxic”; in data set [8] it was “Non-toxic”; in data set [9], “Toxic”. In addition, in [12], the outcome was Active. Moreover, the result with MADS [3], with MADS [7], in the data set on MADS [10] and in the data set on MADS [11] was inactive.

On to `O=C(O)C1(N(CP(=O)(O)O)CP(=O)(O)O)CCCC1`, for which the outcome in the data set with MADS [1] was Active. Further, the Activity result in data set [2] was “Active”; in [4] it was “Toxic”; in data set [5], “Non-toxic”; in data set [6] it was “Non-toxic”; in data set [8] it was “Non-toxic”; in data set [9], “Toxic”. The result in data set [12] was Active. For the same compound, the outcome in the data set with MADS [3], in the data set with MADS [7], with MADS [10] and in the data set on MADS [11] was inactive.

`NCCCC(O)(P(=O)(O)O)P(=O)(O)O`: the result in the data set with MADS [1] was Active. Also, in the data set with MADS [11], the outcome was inactive.

(Values after ChEMBL document CHEMBL1136864, “A one step/one pot synthesis of N,N-bis(phosphonomethyl)amino acids and their effects on adipogenic and osteogenic differentiation of human mesenchymal stem cells” (Bioorg Med Chem, 2009).)
